From ChEMBL document CHEMBL1150853, “A new dehydrogeranylgeraniol antioxidant from Saururus cernuus that inhibits intracellular reactive oxygen species (ROS)-catalyzed oxidation within HL-60 cells” (J Nat Prod, 2001)
Activity calls are given as the source filed them. The rule behind the calls is not given here.

Columns and labels:
HL-60 [1] = test: Antioxidant activity in human HL60 cells assessed as inhibition of endogenous hydrogen peroxide-catalyzed oxidation of 2',7'-dichlorodihydrofluorescein diacetate at 50 ug/mL by flow cytometry; format: functional, cell-based
HL-60 [2] = test: Antioxidant activity in phorbol 12-myristate 13-acetate-stimulated human HL60 cells assessed as inhibition of exogenous hydrogen peroxide-catalyzed oxidation of 2',7'-dichlorodihydrofluorescein diacetate at 50 ug/mL pretreated 30 mins before PMA challenge by flow cytometry; format: functional, cell-based
Colletotrichum acutatum = test: Antifungal activity against Colletotrichum acutatum at 100 nmol by 2D-TLC bioautography assay; format: functional, organism-based
HL-60 [3] = test: Antioxidant activity in human HL60 cells assessed as inhibition of endogenous hydrogen peroxide-catalyzed oxidation of 2',7'-dichlorodihydrofluorescein diacetate at 5 ug/mL by flow cytometry; format: functional
Colletotrichum fragariae = test: Antifungal activity against Colletotrichum fragariae at 100 nmol by 2D-TLC bioautography assay; format: functional, organism-based
HL-60 [4] = test: Cytotoxicity against human HL60 cells at 5 ug/mL after 4 hrs by XTT assay; format: cell-based; conditions: hl-60, 4 h
HL-60 [5] = test: Antioxidant activity in phorbol 12-myristate 13-acetate-stimulated human HL60 cells assessed as inhibition of exogenous hydrogen peroxide-catalyzed oxidation of 2',7'-dichlorodihydrofluorescein diacetate at 5 ug/mL pretreated 30 mins before PMA challenge by flow cytometry; format: functional
[6] = test system: Radical scavenging activity; test: Antioxidant activity assessed as DPPH radical scavenging activity after 30 mins by modified 2D TLC autographic assay; format: functional
[7] = test system: Colletotrichum gloeosporioides; test: Antifungal activity against Colletotrichum gloeosporioides at 100 nmol by 2D-TLC bioautography assay; format: functional, organism-based

| Compound | inhibition (HL-60 [1]) | inhibition (HL-60 [2]) [%] | Activity (Colletotrichum acutatum) | inhibition at 5 µg/mL (HL-60 [3]) [%] | Activity (Colletotrichum fragariae) | Activity (HL-60 [4]) | inhibition at 5 µg/mL (HL-60 [5]) [%] | Activity [6] | Activity [7] |
| --- | --- | --- | --- | --- | --- | --- | --- | --- | --- |
| VITAMIN E | inactive | 32.4 |  |  |  |  |  |  |  |
| CC(C)=C/C=C/C(C)=C/CC/C(C)=C/CC/C(C)=C/CO |  |  | Active | 8 | Active | Non-toxic | 28 | Active | Active |
